Assay results published in patent US9309213B2, “C-3 substituted bicyclooctane based HIV protease inhibitors” (Purdue Research Foundation, priority 2011, dated 2016).
Read-outs that look alike come from different tables or passages of the source.

What was measured:
Type in all cases: cell-based
HIV-1MDR/TM = experiment: microbe, parasite or virus in culture; conditions: for EC50 / fold-change in EC50: Table 4; for EC50: HIV-1MDR/TM (X4), PHA-PBMs, p24 Gag; for fold-change in EC50: HIV-1MDR/TM compared to wild-type HIV-1ERS104pre
HIV-1MDR/G = experiment: microbe, parasite or virus in culture; conditions: for EC50 / fold-change in EC50: Table 4; for EC50: HIV-1MDR/G (X4), PHA-PBMs, p24 Gag; for fold-change in EC50: HIV-1MDR/G compared to wild-type HIV-1ERS104pre
[1] = tested on: HIV-1ERS104pre (wild type); experiment: Antiviral assay in PHA-PBMs, inhibition of p24 Gag protein production, wild-type isolate
[2] = tested on: multidrug-resistant HIV-1 variants; experiment: Antiviral activity against the panel of multidrug-resistant HIV-1 variants
Experimental: Inhibitors 22 with a 3(S)-hydroxyl group and 25 with a 3(R)-hydroxyl group on the Cp-THF ligand were tested against a panel of multidrug-resistant HIV-1 variants. […] The contrast in antiviral activity of 22 compared to 25 underlines the importance of the stereochemistry at the 3-position of the Cp-THF ligand.
Such a stark contrast in antiviral activities underlines the importance of the stereochemistry at the 3-position of the P2 ligand.

HIV-1MDR/B = experiment: microbe, parasite or virus in culture; conditions: for EC50 / fold-change in EC50: Table 4; for EC50: HIV-1MDR/B (X4), PHA-PBMs, p24 Gag; for fold-change in EC50: HIV-1MDR/B compared to wild-type HIV-1ERS104pre
HIV-1MDR/C = experiment: microbe, parasite or virus in culture; conditions: for EC50 / fold-change in EC50: Table 4; for EC50: HIV-1MDR/C (X4), PHA-PBMs, p24 Gag; for fold-change in EC50: HIV-1MDR/C compared to wild-type HIV-1ERS104pre
HIV-1LAI = experiment: In vitro antiviral assay, MT-2 cells exposed to HIV-1LAI, MTT assay
[3] = Human immunodeficiency virus 1, read-out: IC50 ± SDs

SMILES	EC50 (HIV-1MDR/TM) [nM]	fold-change in EC50 (HIV-1MDR/TM)	EC50 (HIV-1MDR/G) [nM]	fold-change in EC50 (HIV-1MDR/G)	EC50 (HIV-1MDR/B) [nM]	fold-change in EC50 (HIV-1MDR/B)	EC50 (HIV-1MDR/C) [nM]	fold-change in EC50 (HIV-1MDR/C)	also measured
COC(=O)N[C@@H]1CO[C@@H]2C[C@H](OC(=O)N[C@@H](Cc3ccccc3)[C@H](O)CN(CC(C)C)S(=O)(=O)c3ccc(OC)cc3)C[C@H]12 [Inhibitor 19l]	74 ± 6	3	39 ± 1	1	75 ± 11	3	30 ± 6	1	EC50 ([1]; Table 4, HIV-1ERS104pre (wt), PHA-PBMs, p24 Gag, read-out: EC50 ± SDs): 29 ± 2 nM; fold changes in EC50 ([2]; all MDR HIV-1 viruses versus wild type): < 3
COC(=O)N[C@H]1CO[C@@H]2C[C@H](OC(=O)N[C@@H](Cc3ccccc3)[C@H](O)CN(CC(C)C)S(=O)(=O)c3ccc(OC)cc3)C[C@H]12 [Inhibitor 19m]	24 ± 4	8	20 ± 5	7	18 ± 3	6	15 ± 5	5	EC50 ([1]; wild-type HIV-1ERS104pre, read-out: EC50): 3 nM; EC50 ([2]; range over the strains): 15 to 24 nM
COc1ccc(S(=O)(=O)N(CC(C)C)C[C@@H](O)[C@H](Cc2ccccc2)NC(=O)O[C@@H]2C[C@@H]3[C@@H](O)CO[C@@H]3C2)cc1 [Inhibitor 25]	–	–	–	–	–	–	–	–	IC50 (HIV-1MDR/TM; [3]): 3.1 ± 2 nM; IC50 (HIV-1MDR/G; [3]): 4.5 ± 0.7 nM; IC50 ([1]; Human immunodeficiency virus 1): 2.9 nM; IC50 [1, 3]: 2.9 ± 0.8 nM; IC50 ([2]; Human immunodeficiency virus 1, read-out: IC50 values against various multidrug-resistant HIV-1 strains): 2.9 to 29 nM; IC50 (HIV-1MDR/B; [3]): 29 ± 7 nM; IC50 (HIV-1LAI; Human immunodeficiency virus 1, MT2, Table 1, MT-2 cells, 100 TCID50s of HIV-1LAI, MTT assay, means of at least two experiments): 2.9 nM; IC50 (HIV-1LAI; Human immunodeficiency virus 1, MT2, read-out: antiviral IC50): 2.9 nM; IC50 (HIV-1MDR/C; [3]): 22 ± 3 nM
